In assay [1] the target is PARS (Mus musculus, UniProt P11103). The assay can be described thus: PARS inhibition by nucleoside derivatives (in vitro inflammation models). The class given is cell-based. An excerpt:
For example, conjugates of adenosine derivatives were investigated for PARS inhibition.

For assay [2], the target named is T1, poly (ADP-ribose) synthetase (PARS) (Mus musculus, UniProt P11103).
T1 construct: endogenous in cells; host or cells: J774 macrophages
The assay can be described thus: Peroxynitrite-induced PARS activation and cell injury in J774 macrophages. Conditions: J774 macrophages exposed to peroxynitrite. The format is cell-based. The source says: In in vitro studies, J774 macrophages were exposed to peroxynitrite to induce activation of PARS and related cell injury.

The mark [3] stands for this setting: 10 μM, values marked *, asterisk not explained, read-out: Inhibition at 10 μM (values marked *).
[4] abbreviates: 10 μM, Table 3 parent/reference compounds, read-out: INHIBITION at 10 μM.

Where two headings read alike, the source gives them in different places.

Sequence of PARS (P11103 whole entry): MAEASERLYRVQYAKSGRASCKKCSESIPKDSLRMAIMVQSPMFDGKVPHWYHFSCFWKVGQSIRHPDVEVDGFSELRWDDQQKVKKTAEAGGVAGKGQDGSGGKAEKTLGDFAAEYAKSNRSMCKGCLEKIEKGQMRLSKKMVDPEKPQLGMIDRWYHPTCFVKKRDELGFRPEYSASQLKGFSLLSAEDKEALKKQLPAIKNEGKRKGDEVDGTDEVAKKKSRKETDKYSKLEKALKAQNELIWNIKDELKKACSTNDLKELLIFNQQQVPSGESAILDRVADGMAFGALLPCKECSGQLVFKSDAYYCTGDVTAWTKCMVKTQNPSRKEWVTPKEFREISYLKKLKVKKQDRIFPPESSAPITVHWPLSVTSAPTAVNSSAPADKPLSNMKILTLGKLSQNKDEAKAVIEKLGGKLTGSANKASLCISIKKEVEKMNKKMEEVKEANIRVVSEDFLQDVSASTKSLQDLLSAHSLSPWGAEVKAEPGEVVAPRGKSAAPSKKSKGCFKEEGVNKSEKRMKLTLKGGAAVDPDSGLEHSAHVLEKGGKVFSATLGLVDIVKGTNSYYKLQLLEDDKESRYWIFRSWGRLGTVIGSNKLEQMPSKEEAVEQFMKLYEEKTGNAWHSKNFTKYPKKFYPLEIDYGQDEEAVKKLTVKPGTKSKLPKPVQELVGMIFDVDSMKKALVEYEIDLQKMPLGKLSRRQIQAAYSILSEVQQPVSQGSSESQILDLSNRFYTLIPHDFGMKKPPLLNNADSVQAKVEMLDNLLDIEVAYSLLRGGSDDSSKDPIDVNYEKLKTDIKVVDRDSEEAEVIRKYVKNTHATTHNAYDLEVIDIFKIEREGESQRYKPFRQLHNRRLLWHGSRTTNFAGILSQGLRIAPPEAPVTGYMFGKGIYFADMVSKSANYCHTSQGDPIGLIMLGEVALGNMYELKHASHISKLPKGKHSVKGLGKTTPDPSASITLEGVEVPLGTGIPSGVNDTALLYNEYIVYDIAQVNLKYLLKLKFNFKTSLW
T1 sequence (P11103 whole entry): as above

Take `NCC1OC(n2cnc3c(N)ncnc32)C(O)C1O` (stereo not shown) [Compound 139]: in assay [1] (read-out: Inhibition at 100 μM), the inhibition at 100 µM turned out to be 27%.
Turning to `NC(=O)c1cccc(NC(=O)CCC(=O)NCC2OC(n3cnc4c(N)ncnc43)C(O)C2O)c1` (stereo not shown) [Compound 134], the inhibition at 10 µM in assay [1] (read-out: Inhibition at 10 μM) was 52%. Further, the inhibition at 100 µM in assay [1] (read-out: Inhibition at 100 μM) stood at 73%.
Turning to `Nc1ncnc2c1ncn2C1OC(CNC(=O)CC(=O)Nc2cccc3c2CNC3=O)C(O)C1O` (stereo not shown) [Compound 101], the inhibition at 10 µM in assay [1] (read-out: Inhibition at 10 μM) turned out to be 64%. In addition, the inhibition at 100 µM in assay [1] (read-out: Inhibition at 100 μM) is 100%.
Compound `COc1cccc2c1CNC2=O` [Compound 28] returned an inhibition at 10 µM in assay [2] of 64%.
Consider `Nc1ncnc2c1ncn2C1OC(C(=O)O)C(O)C1O` (stereo not shown) [Compound 140], for which the inhibition at 10 µM in assay [1] (read-out: Inhibition at 10 μM) came out at 14.2%.
As to `CC1(C)OC2C(CNC(=O)CCC(=O)Nc3cccc4c3CNC4=O)OC(n3cnc4c(N)ncnc43)C2O1` (stereo not shown) [Compound 109], the inhibition at 10 µM in assay [1] (read-out: Inhibition at 10 μM) is 29%. Moreover, the inhibition at 100 µM in assay [1] (read-out: Inhibition at 100 μM) worked out at 60%.
Take `Nc1ncnc2c1ncn2C1OC(CNC(=O)CCn2ccc3c2CCCC3=O)C(O)C1O` (stereo not shown) [Compound 136]: the inhibition at 10 µM in assay [1] (read-out: Inhibition at 10 μM) is 32%. The inhibition at 100 µM in assay [1] (read-out: Inhibition at 100 μM) was determined as 42%.
As to `Nc1ncnc2c1ncn2C1OC(CNC(=O)C(O)C(O)C(=O)Nc2cccc3c2CNC3=O)C(O)C1O` (stereo not shown) [Compound 111], the inhibition at 10 µM in assay [1] (read-out: Inhibition at 10 μM) is 75%. Further, the inhibition at 100 µM in assay [1] (read-out: Inhibition at 100 μM) amounted to 100%.
On to `CN(CC(=O)Nc1cccc2c1CNC2=O)C(=O)C1OC(n2cnc3c(N)ncnc32)C(O)C1O` (stereo not shown) [Compound 123], for which, in assay [1] (setting [3]), the inhibition at 10 µM was 74%.
Turning to `O=C(CCC(=O)Nc1cccc2c1CNC2=O)NCC1OC(n2cnc3c(NCC4CC4)ncnc32)C(O)C1O` (stereo not shown) [Compound 122], the inhibition at 10 µM in assay [1] (setting [3]) was 25%.
As for `N=C(N)NCCC[C@H](N)C(=O)Nc1cccc2c1CNC2=O` [Compound 42, 4-N-(arginyl)-2 ,3-dihydro-1H-isoindol-1-one], the “% Inhibition (10 μM)” value in assay [2] worked out at 72%.
Take `NC(=O)c1ccccc1-c1cccc(N)c1` [F, reference compound]: the inhibition at 10 µM in assay [1] (setting [4]) came out at 37%.
Turning to `CC1(C)OC2C(CNC(=O)CCCC(=O)Nc3cccc4c3CNC4=O)OC(n3cnc4c(N)ncnc43)C2O1` (stereo not shown) [Compound 110], the inhibition at 10 µM in assay [1] (read-out: Inhibition at 10 μM) turned out to be 29%. Moreover, the inhibition at 100 µM in assay [1] (read-out: Inhibition at 100 μM) came to 64%.
Turning to `CCN(CCC(=O)Nc1cccc2c1CNC2=O)C(=O)C1OC(n2cnc3c(N)ncnc32)C(O)C1O` (stereo not shown) [Compound 127], the inhibition at 10 µM in assay [1] (setting [3]) is 89%.
In the case of `Nc1ncnc2c1ncn2[C@@H]1OC(CNC(=O)c2c(F)ccc(F)c2C(=O)Nc2cccc3c2CNC3=O)[C@@H](O)[C@H]1O` (stereo partly shown) [Compound 115], the inhibition at 10 µM in assay [1] (read-out: Inhibition at 10 μM) was 0%. Also, in assay [1] (read-out: Inhibition at 100 μM), the inhibition at 100 µM came to 34%.
As for `Nc1ncnc2c1ncn2C1OC(CNC(=O)CC(O)CC(=O)Nc2cccc3c2CNC3=O)C(O)C1O` (stereo not shown) [Compound 121], the inhibition at 10 µM in assay [1] (setting [3]) was determined as 13.3%. Moreover, the inhibition at 100 µM in assay [1] (read-out: Inhibition at 100 μM) turned out to be 81%.
As to `O=C1NCc2c(O)cccc21` [Compound 27, 4-hydroxy-2,3-dihydro-1H-isoindol-1-one], the inhibition at 10 µM in assay [2] was 60%.
As to `O=C(O)CCn1ccc2c1CCCC2=O` [C, reference compound], in assay [1] (setting [4]), the inhibition at 10 µM was determined as 4%.
With `O=C(CCC(=O)Nc1cccc2c1CNC2=O)NCC1OC(n2ccc(O)nc2=O)C(O)C1O` (stereo not shown) [Compound 132], the inhibition at 10 µM in assay [1] (read-out: Inhibition at 10 μM) was found to be 61%. Moreover, the inhibition at 100 µM in assay [1] (read-out: Inhibition at 100 μM) came to 83%.
With `Nc1ncnc2c1ncn2C1OC(CNC(=O)CCCCCCC(=O)Nc2cccc3c2CNC3=O)C(O)C1O` (stereo not shown) [Compound 131], the “inhibition at 10 µM” value in assay [1] (10 μM) worked out at 36. The “inhibition at 100 µM” value in assay [1] (100 μM) is listed as 68.
On to `CCN(CC(=O)Nc1cccc2c1CNC2=O)C(=O)C1OC(n2cnc3c(N)ncnc32)C(O)C1O` (stereo not shown) [Compound 126], for which, in assay [1] (setting [3]), the inhibition at 10 µM worked out at 67.1%.
Consider `Nc1ncnc2c1ncn2C1OC(CNC(=O)C(F)(F)C(F)(F)C(F)(F)C(=O)Nc2cccc3c2CNC3=O)C(O)C1O` (stereo not shown) [Compound 113], for which the inhibition at 10 µM in assay [1] (read-out: Inhibition at 10 μM) was found to be 55%. Besides, the inhibition at 100 µM in assay [1] (read-out: Inhibition at 100 μM) turned out to be 85%.
The corresponding values for `Nc1ncnc2c1ncn2C1OC(CNC(=O)CCCCCC(=O)Nc2cccc3c2CNC3=O)C(O)C1O` (stereo not shown) [Compound 105] are 66% and 100%.
Take `CN1CCN(CCCC(=O)Nc2cccc3c2CNC3=O)CC1` [Compound 10, 4-N-(N-methylpiperazine)butylamido-2,3-dihydro-1H-isoindol-1-one]: in assay [2], the “% Inhibition (10 μM)” value amounted to 35%.
Turning to `Nc1ncnc2c1ncn2C1OC(CNC(=O)CCC(=O)Nc2cccc3c2CNC3=O)C(O)C1O` (stereo not shown) [Compound 102], in assay [1] (read-out: Inhibition at 10 μM, 10 μM), the inhibition at 10 µM turned out to be 100%. Further, the inhibition at 100 µM in assay [1] (read-out: Inhibition at 100 μM, 100 μM) was found to be 100%.
On to `CN1CCN(CCC(=O)Nc2cccc3c2CNC3=O)CC1` [Compound 9, 4-N-(N-methylpiperazine)propylamido-2,3-dihydro-1H-isoindol-1-one], for which the “% Inhibition (10 μM)” value in assay [2] is 59%.
For `Nc1ncnc2c1ncn2C1OC(CNC(=O)CCCCCCC(=O)Nc2cccc3c2CNC3=O)C(O)C1O` (stereo not shown) [Compound 106], in assay [1] (10 μM), the “inhibition at 10 µM” value is 98. Moreover, in assay [1] (100 μM), the “inhibition at 100 µM” value turned out to be 100.
In the case of `O=C1NCc2c(F)cccc21` [Compound 2], the inhibition at 10 µM in assay [2] is 27%.
Take `Nc1ncnc2c1ncn2C1OC(C(=O)NCC(=O)Nc2cccc3c2CNC3=O)C(O)C1O` (stereo not shown) [Compound 128]: the inhibition at 10 µM in assay [1] (setting [3]) was found to be 83.2%.
For the compound `Nc1ncnc2c1ncn2[C@@H]1O[C@H](CO)[C@@H](O)[C@H]1O` [G, adenosine, reference compound], in assay [1], the “PARS inhibitory activity (in words)” value is reported as “only modest activity”. In addition, in assay [1] (setting [4]), the inhibition at 10 µM was determined as 40%.
Regarding `Nc1ncnc2c1ncn2[C@@H]1OC(CNC(=O)/C=C/c2ccc(C(=O)Nc3cccc4c3CNC4=O)cc2)[C@@H](O)[C@H]1O` (stereo partly shown) [Compound 118], the inhibition at 10 µM in assay [1] (read-out: Inhibition at 10 μM) stood at 31.3%. Moreover, in assay [1] (read-out: Inhibition at 100 μM), the inhibition at 100 µM came to 51.4%.
As to `Nc1cccc2c1CNC2=O` [Compound 4, 4-amino-2,3-dihydro-1H-isoindol-1-one], the inhibition at 10 µM in assay [2] and in assay [1] (setting [4]) was 27% throughout.
With `Nc1ncnc2c1ncn2C1OC(C(=O)NCCC(=O)Nc2cccc3c2CNC3=O)C(O)C1O` (stereo not shown) [Compound 129], the inhibition at 10 µM in assay [1] (setting [3]) was found to be 77.4%.
Still for that read-out and setting: in the case of `CN(CCCCCCCC(=O)Nc1cccc2c1CNC2=O)C(=O)C1OC(n2cnc3c(N)ncnc32)C(O)C1O` (stereo not shown) [Compound 125] it was 70%.
As to `Nc1ncnc2c1ncn2C1OC(CNC(=O)COCC(=O)Nc2cccc3c2CNC3=O)C(O)C1O` (stereo not shown) [Compound 114], the inhibition at 10 µM in assay [1] (read-out: Inhibition at 10 μM) was found to be 56%. Moreover, in assay [1] (read-out: Inhibition at 100 μM), the inhibition at 100 µM was determined as 100%.
In the case of `O=C1NCc2ccccc21` [Compound 1], the inhibition at 10 µM in assay [2] and in assay [1] (setting [4]) was 33% in each case.
In the case of `Nc1ncnc2c1ncn2C1OC(CNC(=O)CCCCCCCCC(=O)Nc2cccc3c2CNC3=O)C(O)C1O` (stereo not shown) [Compound 108], in assay [1] (read-out: Inhibition at 10 μM), the inhibition at 10 µM came to 34%. In assay [1] (read-out: Inhibition at 100 μM), the inhibition at 100 µM turned out to be 74%.
Take `Nc1ncnc2c1ncn2[C@@H]1OC(CNC(=O)c2cc(Cl)c(Cl)cc2C(=O)Nc2cccc3c2CNC3=O)[C@@H](O)[C@H]1O` (stereo partly shown) [Compound 116]: in assay [1] (read-out: Inhibition at 10 μM), the inhibition at 10 µM stood at 0%. Besides, the inhibition at 100 µM in assay [1] (read-out: Inhibition at 100 μM) is 55%.
On to `Nc1ncnc2c1ncn2C1OC(CNC(=O)CNC(=O)Nc2cccc3c2CNC3=O)C(O)C1O` (stereo not shown) [Compound 120], for which, in assay [1] (read-out: Inhibition at 10 μM), the inhibition at 10 µM is 62%. Further, the inhibition at 100 µM in assay [1] (read-out: Inhibition at 100 μM) was 100%.
Consider `CC1(C)OC2C(CNC(=O)CCn3ccc4c3CCCC4=O)OC(n3cnc4c(N)ncnc43)C2O1` (stereo not shown) [Compound 135], for which the inhibition at 10 µM in assay [1] (read-out: Inhibition at 10 μM) was 15%. The inhibition at 100 µM in assay [1] (read-out: Inhibition at 100 μM) turned out to be 25%.
With `NC(=O)c1ccccc1-c1cccc(NC(=O)CCC(=O)NCC2OC(n3cnc4c(N)ncnc43)C(O)C2O)c1` (stereo not shown) [Compound 133], the inhibition at 10 µM in assay [1] (read-out: Inhibition at 10 μM) worked out at 5%. In addition, the inhibition at 100 µM in assay [1] (read-out: Inhibition at 100 μM) worked out at 69%.
Take `O=C(O)CCC(=O)Nc1cccc2c1CNC2=O` [Compound 55, 4-N-(succinyl)-2,3-dihydro-1H-isoindol-1-one]: the “% Inhibition (10 μM)” value in assay [2] amounted to 25%.
Same read-out and setting: the value for `O=C(CCC(=O)N1CCc2ccccc2C1)Nc1cccc2c1CNC2=O` [Compound 36, 4-N-(tetrahydroisoquinolinosuccinamido)-2,3-dihydro-1H-isoindol-1-one] was 64%.
For the compound `O=C(CN1CCNCC1)Nc1cccc2c1CNC2=O` [Compound 73], the inhibition at 10 µM in assay [2] came to 61%.
With `Nc1ncnc2c1ncn2C1OC(CNC(=O)CCCCCCCC(=O)Nc2cccc3c2CNC3=O)C(O)C1O` (stereo not shown) [Compound 107], the inhibition at 10 µM in assay [1] (read-out: Inhibition at 10 μM) was 62%. The inhibition at 100 µM in assay [1] (read-out: Inhibition at 100 μM) was determined as 100%.
On to `Nc1ncnc2c1ncn2C1OC(CNCC(=O)Nc2cccc3c2CNC3=O)C(O)C1O` (stereo not shown) [Compound 119], for which the inhibition at 10 µM in assay [1] (read-out: Inhibition at 10 μM) is 25%. In addition, the inhibition at 100 µM in assay [1] (read-out: Inhibition at 100 μM) stood at 58%.
The corresponding values for `CC1(C)OC2C(CN3C(=O)c4ccccc4C3=O)OC(n3cnc4c(N)ncnc43)C2O1` (stereo not shown) [Compound 137] are 21% and 40%.
In the case of `O=C1NCc2c1cccc2[N+](=O)[O-]` [Compound 3, 4-nitro-2,3-dihydro-1H-isoindol-1-one], the inhibition at 10 µM in assay [2] amounted to 12%.
With “3-N-chloroacetyl-2,3-dihydro-1H-isoindol-1-one [Compound 5]”, the “% Inhibition (10 μM)” value in assay [2] came to 29%.

Source of the values: patent US6903079B2, “Nucleoside compounds and compositions thereof” (Inotek Pharmaceuticals Corporation, priority 2000, dated 2005).
